In general, IC50 refers to the point on the concentration scale where inhibition reaches its midpoint.

Drawing on US9567301B2, “Pyrrol-1-yl benzoic acid derivatives useful as myc inhibitors” (Whitehead Institute for Biomedical Research, priority 2012, dated 2017), this text covers IC50 for 57 compounds.

Molecules are shown by their SMILES.

c-Myc/Max/Ebox DNA, sequence (P01106 16-454): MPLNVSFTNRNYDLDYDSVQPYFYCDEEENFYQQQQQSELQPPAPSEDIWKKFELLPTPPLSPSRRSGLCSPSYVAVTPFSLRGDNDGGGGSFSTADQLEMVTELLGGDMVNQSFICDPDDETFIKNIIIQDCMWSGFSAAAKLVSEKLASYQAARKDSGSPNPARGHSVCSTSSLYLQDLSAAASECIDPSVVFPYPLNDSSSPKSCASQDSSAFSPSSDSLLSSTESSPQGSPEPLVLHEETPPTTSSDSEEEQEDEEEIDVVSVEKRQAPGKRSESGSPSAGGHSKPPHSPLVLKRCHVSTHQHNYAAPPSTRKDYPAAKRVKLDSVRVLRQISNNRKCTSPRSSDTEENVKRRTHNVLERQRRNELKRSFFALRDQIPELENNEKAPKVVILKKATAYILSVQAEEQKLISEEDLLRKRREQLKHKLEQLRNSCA

The target of the assay is c-Myc/Max/Ebox DNA (Homo sapiens, UniProt P01106). Briefly: c-Myc/Max/Ebox DNA AlphaScreen assay. The note with it: c-Myc/Max/Ebox DNA AlphaScreen; NA: inactive under assay conditions; read-out: Biochemical IC50. The arrangement: An exemplary assay uses full-length human c-Myc and Max proteins; his6 (cleaved yes); made in house. Format: binding. The protocol:
This protocol was used to generate the biochemical data in Table 2 and FIG. 11. The primary AlphaScreen assay is amenable to 384-well and 1536-well plate formats for HTS. Human his6-c-Myc and his6-Max were used with biotinylated DNA containing a single Ebox sequence (biotin[…]) purchased from MWG Operon. Free c-Myc was generated from his6-c-Myc through thrombin cleavage of the his6 tag. For 384-well plate assays, 10 μL of a 2× solution of free c-Myc (25 nM final), Ni++-coated Acceptor Bead (25 μg/ml final), and biotinylated Ebox oligo (10 nM final) were added to 384-well plates with a Biotek EL406 liquid handler. 100 nL of compounds from stock plates were added by pin transfer using a Janus Workstation (PerkinElmer), allowing the compounds to interact with c-Myc prior to c-Myc binding with Max. In the current assay, DMSO was not allowed to exceed 2% v/v of the assay. 10 μl of 2× master mix containing streptavidin-coated donor beads (25 μg/ml final) and his6-Max (1.25 nM final) were added. AlphaScreen measurements were performed on an Envision 2104 (PerkinElmer) utilizing the manufacturer's protocol. The assay can also be performed in 1536-plate format with 8 μL total volume using two 4 μL additions (instead of […] and 10 μL respectively).
Assays are performed with minor modifications from the manufacturer's protocol (PerkinElmer). Both master mixes were made in room temperature assay buffer (50 mM HEPES, 150 mM NaCl, 0.2% w/v BSA, 0.02% w/v Tween20, 40 μg/ml glycogen, 500 μM DTT, pH 8.0, DTT and glycogen added fresh). Alpha beads were added to respective master solutions and wrapped in foil. All subsequent steps were performed in low light conditions. Solution 1: 2× solution of components with final concentrations of cMyc (25 nM), Ni-coated Acceptor Bead (25 μg/ml), and biotinylated Ebox oligo (10 nM). Solution 2: 2× solution of streptavidin-coated donor beads (25 μg/ml final) and his6-Max (1.25 nM final). […] Solution 1 were added to 384-well plate (AlphaPlate-384, PerkinElmer) with Biotek EL406 liquid handler and the plates were centrifuged at 1000 rpm for 1 minute. 100 nL of compounds from stock plates were added by pin transfer using a Janus Workstation. 10 μL Solution 2 were added with the liquid handler. Plates were sealed with foil to block light exposure and prevent evaporation. Plates were centrifuged at 1000 rpm for 1 minute followed by 2 hour incubation. AlphaScreen measurements were performed on an Envision 2104 utilizing the manufacturer's protocol. Excitation was at 680 nm for donor bead release of singlet oxygen and emission was read with a bandpass filter from 520-620 nm. Glycogen: Roche Diagnostics #10901393001. Plate 1536: Perkin Elmer, 6004350. Plate 384: Perkin Elmer, 6005350. Nickel-His Alpha Beads: 6760619R.
As for `Cc1ccc(C)n1-c1cccc(C(=O)O)c1` [Compound 2], the IC50 is 74.5 µM. The result for `Cc1ccc(C)n1-c1ccc(C(=O)O)cc1` [Compound 3] reads 287 µM; that for `Cc1ccc(C)n1-c1cc(C(=O)O)ccc1O` [Compound 4], 34.1 µM. Take `Cc1ccc(C)n1-c1ccc(C(=O)O)c(O)c1` [Compound 5]: the IC50 turned out to be 4.29 µM. Then `COC(=O)c1ccc(-n2c(C)ccc2C)cc1O` [Compound 18], with 1.54 µM; and `O=C(O)c1ccccc1-n1c(-c2ccccc2)cc2c1CCCC2=O` [Compound 29], with 252 µM; and `O=C(O)c1cc(-n2cccc2)ccc1N1CCOCC1` [Compound 30], with 273 µM. On to `CCCC(=O)Nc1ccc(N2CCCCCC2)cc1C(=O)O` [Compound 31], for which the IC50 stood at 172 µM. Regarding `CCCCC(=O)Nc1ccc(N2CCC(C)CC2)c(C(=O)O)c1` [Compound 32], the IC50 was 881 µM. The result for `CC(=O)Nc1ccc(N2CCCCCC2)c(C(=O)O)c1` [Compound 33] reads 171 µM. The result for `CC(=O)Nc1ccc(N2CCCC(C)C2)c(C(=O)O)c1` (stereo not drawn) [Compound 34] reads 191 µM; that for `Cc1ccc(C)n1-c1ccc(Cl)cc1C(=O)O` [Compound 35], 31.3 µM; that for `Cc1ccc(C)n1-c1ccc(Br)cc1C(=O)O` [Compound 36], 64.7 µM. Then `COc1cc(C(=O)O)c(-n2c(C)ccc2C)cc1OC` [Compound 37], with 62.7 µM; and `Cc1ccc(C)n1-c1cc(Cl)ccc1C(=O)O` [Compound 38], with 63.7 µM; and `CC(=O)Nc1ccc(-n2c(C)ccc2C)c(C(=O)O)c1` [Compound 40], with 34.4 µM. Turning to `Cc1ccc(-c2ccccc2)n1-c1ccccc1C(=O)O` [Compound 41], the IC50 is 324 µM. `Cc1cc2c(n1-c1cccc(C(=O)O)c1)CC(C)(C)CC2=O` [Compound 42]: the IC50 turned out to be 697 µM. Then `CC1(C)CC(=O)c2cc(CC(=O)O)n(-c3cccc(C(=O)O)c3)c2C1` [Compound 43], with 197 µM; and `Cc1ccc(C(=O)O)cc1-n1c(C)cc(CN2CCC(N)(C(=O)O)C2)c1C` (stereo not drawn) [Compound 44], with 194 µM. For `Cc1ccc(C(=O)O)cc1-n1c(C)cc(CN2C[C@H](N(C)C)C[C@H]2CO)c1C` [Compound 45], the IC50 stood at 115 µM.

For `Cc1cc(/C=C2\C(=O)NC(=O)N(C)C2=O)c(C)n1-c1cccc(C(=O)O)c1` [Compound 46], the 50% inhibitory concentration (IC50) stood at 76.8 µM. Then `CC(=O)c1cc(C)n(-c2ccc(C(=O)O)cc2)c1C` [Compound 47], with 166 µM. Then `Cc1cc2c(n1-c1ccc(C(=O)O)cc1)CCCCC2` [Compound 48], with 51.8 µM; and `Cc1c(-c2ccccc2)c2c(n1-c1ccc(C(=O)O)cc1)CCCC2` [Compound 49], with 42 µM; and `Cc1cc2c(n1-c1ccc(C(=O)O)cc1)CC(C)(C)CC2=O` [Compound 50], with 446 µM. For `CC1(C)CC(=O)c2cc(CC(=O)O)n(-c3ccc(C(=O)O)cc3)c2C1` [Compound 51], the IC50 stood at 523 µM.

`Cc1cc(/C=C(\C#N)C(=O)Nc2ccc(O)cc2)c(C)n1-c1ccccc1C(=O)O` [Compound 52]: the half-maximal inhibitory concentration (IC50) was determined as 36.2 µM. As to `Cc1ccccc1N1C(=O)NC(=O)/C(=C\c2cc(C)n(-c3ccccc3C(=O)O)c2C)C1=O` [Compound 53], the IC50 is 2510 µM. For `Cc1cc(/C=N/NC(N)=S)c(C)n1-c1ccccc1C(=O)O` [Compound 54], the IC50 came to 16.3 µM. Turning to `Cc1cc(/C=C2\C(=O)NC(=O)N(c3ccc(F)cc3)C2=O)c(C)n1-c1ccccc1C(=O)O` [Compound 55], the IC50 was determined as 58.5 µM. For `Cc1cc(/C=C2\SC(=O)N(C)C2=O)c(C)n1-c1ccccc1C(=O)O` [Compound 56], the IC50 was determined as 103 µM. `Cc1cc(/C=C2\SC(=O)N(C)C2=O)c(C)n1-c1ccccc1C(=O)O` [Compound 57]: the IC50 was determined as 92.2 µM. The result for `Cc1cc(/C=C(/C#N)C(=O)NCCc2c[nH]c3ccccc23)c(C)n1-c1ccccc1C(=O)O` [Compound 58] reads 135 µM; that for `Cc1cc(/C=C(/C#N)c2nc3ccccc3[nH]2)c(C)n1-c1ccccc1C(=O)O` [Compound 59], 125 µM; that for `Cc1cccc(C)c1-c1ccccc1C(=O)O` [Compound 60], 89.1 µM. The result for `Cc1cc(C(=O)N/N=C/c2ccccc2)c(C)n1-c1ccccc1C(=O)O` [Compound 61] reads 49.2 µM. With `Cc1ccc(C)n1-c1cc(C(=O)NCCc2ccc(O)c(O)c2)ccc1C(=O)O` [Compound 73], the IC50 amounted to 33.4 µM. The result for `Cc1ccc(C)n1-c1cc(C(=O)N/N=C/c2c[nH]cn2)ccc1C(=O)O` [Compound 78] reads 1.75 µM. The result for `Cc1ccc(C)n1-c1cc(C(=O)N/N=C/c2cccc(B(O)O)c2)ccc1C(=O)O` [Compound 82] reads 2.95 µM; that for `Cc1ccc(C)n1-c1cc(C(=O)N/N=C/c2ccc(O)cc2)ccc1C(=O)O` [Compound 83], 6.85 µM.

On to `Cc1ccc(C)n1-c1cc(C(=O)N/N=C/c2ccc(S(=O)(=O)O)o2)ccc1C(=O)O` [Compound 84], for which the IC50 worked out at 0.534 µM. Turning to `Cc1ccc(C)n1-c1cc(C(=O)N/N=C/c2cccnc2)ccc1C(=O)O` [Compound 86], the IC50 is 5.97 µM. As for `Cc1ccc(C)n1-c1cc(C(=O)N/N=C/c2c[nH]c3ccc(F)cc23)ccc1C(=O)O` [Compound 95], the IC50 was found to be 23.3 µM. The result for `Cc1ccc(C)n1-c1cc(C(=O)N/N=C/c2ccc(-c3cncnc3)cc2)ccc1C(=O)O` [Compound 102] reads 26.5 µM; that for `Cc1ccc(C)n1-c1cc(C(=O)N/N=C/c2ccc3nccnc3c2)ccc1C(=O)O` [Compound 104], 7.11 µM.

As to `Cc1ccc(C)n1-c1cc(C(=O)N/N=C\c2ccc(O)c(F)c2)ccc1C(=O)O` [Compound 117], the IC50 was found to be 6.52 µM. Then `Cc1ccc(C)n1-c1cc(C(=O)N/N=C\c2cc(F)c(C(=O)O)c(F)c2)ccc1C(=O)O` [Compound 118], with 0.48 µM. The result for `Cc1ccc(C)n1-c1cc(C(=O)N/N=C/c2cccc(C(=O)O)c2)ccc1C(=O)O` [Compound 120] reads 0.393 µM. Turning to `Cc1ccc(C)n1-c1cc(C(=O)N/N=C/c2ccccc2)ccc1C(=O)O` [Compound 121], the IC50 was found to be 7.69 µM. As for `Cc1ccc(C)n1-c1cc(C(=O)N/N=C/c2ccc(C(=O)O)o2)ccc1C(=O)O` [Compound 124], the IC50 was found to be 0.708 µM. Then `Cc1ccc(C)n1-c1cc(C(=O)N/N=C/c2cc(C(=O)O)ccc2F)ccc1C(=O)O` [Compound 125], with 1.25 µM. In the case of `Cc1c2ccccc2c(C)n1-c1ccccc1C(=O)O` [Compound 137], the IC50 came out at 57.8 µM. Then `CN(C)c1ccc(/N=N/c2ccccc2C(=O)O)cc1` [Compound 154], with 43.4 µM. Then `CN1CCN(c2ccccc2C(=O)O)CC1` [Compound 156], with 346 µM. Consider `Cc1ccc(C)n1-c1cc(C(=O)N2CCc3ccc(C(=O)O)cc3C2)ccc1C(=O)O` [Compound 165], for which the IC50 was determined as 0.343 µM. Turning to `Cc1ccc(C)n1-c1cc(C(=O)NNC(=O)c2cccc(C(=O)O)c2)ccc1C(=O)O` [Compound 166], the IC50 is 1.89 µM.
